# According to patent US8415342B2, “Besifloxacin ophthalmic composition for the treatment or control of infection” (Bausch & Lomb Incorporated, priority 2008, dated 2013):
# Like-named read-outs stand apart in the source and are kept apart here.
# What was measured:
# [1] = test system: Pathogens Associated With Bacterial Conjunctivitis; assay: Integrated besifloxacin MIC data from preclinical (nonclinical) studies (Table 8); type: cell-based; conditions: for MIC50: read-out: MIC50
# [2] = Study 424: tear fluid pharmacokinetics after single topical ocular instillation in healthy volunteers; type: in vivo, human
# Description: This study was conducted to evaluate the ocular PK of besifloxacin in tear fluid after a single instillation of besifloxacin ophthalmic suspension, 0.6%, in both eyes of healthy volunteers and to compare the actual besifloxacin exposure to MICs of the most prevalent pathogens associated with bacterial conjunctivitis.
# Healthy volunteers received a single instillation (37 μL by pipette) of besifloxacin ophthalmic suspension, 0.6%, in the conjunctival sac of each eye. A single tear sample was collected on a Schirmer tear strip from each healthy volunteer. […] Samples were analyzed using a validated LC/MS/MS method, and the LLOQ was 2 ng/mL (equivalent to approximately 0.2 μg/g for a 10-mg tear sample).
# Mean tear concentration data were obtained from the per protocol (PP) set and the full analysis (FAS) set. For the purpose of this study, the PP set included all healthy volunteers with the exclusion of apparent outlier values. The FAS set included all healthy volunteers who received besifloxacin, and from whom all sampling data were available (no exclusion of outlier values).
# [3] = Proteus mirabilis Quinolone-S, N 98
# [4] = Serratia marcescens Quinolone-S, N 98
# [5] = both sexes, human, tear fluid, topical, 37 μL of 0.6% suspension per eye, tears, single instillation 0.6% suspension, healthy volunteers, FAS
# [6] = both sexes, human, tear fluid, topical, 37 μL of 0.6% suspension per eye, tears, single instillation 0.6% suspension, healthy volunteers, PP
# [7] = tears, single instillation 0.6% suspension, healthy volunteers, FAS
compound,measurement,setting,value
"N[C@@H]1CCCCN(c2c(F)cc3c(=O)c(C(=O)O)cn(C4CC4)c3c2Cl)C1 [Besifloxacin, (R)-(+)-(3-amino-2,3,4,5,6,7-hexahydro-1H-azepin-1-yl)-8-chloro-1-cyclopropyl-6-fluoro-1,4,-dihydro-4-oxo-3-quinolinecarboxylic acid]",MIC90,"[1]; Neisseria gonorrhoeae, N 103, read-out: MIC90",0.015 µg/mL
same,MIC Range,"[1]; Propionibacterium acnes, N 21, agar dilution",0.12 to 0.25 µg/mL
same,MIC Range,[1]; [3],0.25 to 4 µg/mL
same,MIC50,[1]; [3],0.5 µg/mL
same,MIC90,"[1]; Proteus mirabilis, Proteus mirabilis Quinolone-S, N 98, read-out: MIC90",1 µg/mL
same,MIC Range,"[1]; Pseudomonas aeruginosa Quinolone-S, N 49",0.5 to 4 µg/mL
same,MIC50,"[1]; Pseudomonas aeruginosa, Pseudomonas aeruginosa Quinolone-R, N 51",> 8 µg/mL
same,MIC90,"[1]; Pseudomonas aeruginosa, Pseudomonas aeruginosa Quinolone-R, N 51, read-out: MIC90",> 8 µg/mL
same,MIC50,"[1]; Pseudomonas aeruginosa, Pseudomonas aeruginosa Quinolone-S, N 49",1 µg/mL
same,MIC90,"[1]; Pseudomonas aeruginosa, Pseudomonas aeruginosa Quinolone-S, N 49, read-out: MIC90",2 µg/mL
same,MIC90,"[1]; S. aureus, value used for PK/PD ratios of Study 424",^aMIC90: S. aureus = 1 μg/mL.
same,MIC Range,[1]; [4],0.25 to 2 µg/mL
same,MIC50,[1]; [4],1 µg/mL
same,MIC90,"[1]; Serratia marcescens, Serratia marcescens Quinolone-S, N 98, read-out: MIC90",2 µg/mL
same,MIC Range,"[1]; Staphylococcus aureus MRSA-QR, N 73",0.25 to 8 µg/mL
same,MIC Range,"[1]; Staphylococcus aureus MSSA-QR, N 12",0.03 to 4 µg/mL
same,MIC50,"[1]; Staphylococcus aureus, MRSA, Staphylococcus aureus MRSA-QR, N 73",1 µg/mL
same,MIC50,"[1]; Staphylococcus aureus, MRSA, Staphylococcus aureus MRSA-QS, N 36",0.03 µg/mL
same,MIC50,"[1]; Staphylococcus aureus, MSSA, Staphylococcus aureus MSSA-QR, N 12",0.25 µg/mL
same,MIC90,"[1]; Staphylococcus aureus, MSSA, Staphylococcus aureus MSSA-QR, N 12, read-out: MIC90",4 µg/mL
same,MIC50,"[1]; Staphylococcus aureus, MSSA, Staphylococcus aureus MSSA-QS, N 80",0.03 µg/mL
same,MIC90,"[1]; Staphylococcus aureus, S. aureus, value used for PK/PD ratios of Study 424, read-out: MIC90",1 µg/mL
same,MIC Range,"[1]; Staphylococcus epidermidis MRSE-QR, N 32",0.25 to 8 µg/mL
same,MIC Range,"[1]; Staphylococcus epidermidis MSSE-QR, N 5",0.25 to 1 µg/mL
same,MIC Range,"[1]; Staphylococcus epidermidis MSSE-QS, N 39",0.015 to 0.06 µg/mL
same,MIC50,"[1]; Staphylococcus epidermidis, MRSE, Staphylococcus epidermidis MRSE-QR, N 32",2 µg/mL
same,MIC50,"[1]; Staphylococcus epidermidis, MRSE, Staphylococcus epidermidis MRSE-QS, N 23",0.03 µg/mL
same,MIC50,"[1]; Staphylococcus epidermidis, Staphylococcus epidermidis MSSE-QR, N 5",0.5 µg/mL
same,MIC Range,"[1]; Staphylococcus hominis Quinolone-R, N 35",0.125 to 2 µg/mL
same,MIC Range,"[1]; Staphylococcus hominis Quinolone-S, N 15",0.015 to 0.06 µg/mL
same,MIC50,"[1]; Staphylococcus hominis, Staphylococcus hominis Quinolone-S, N 15",0.03 µg/mL
same,MIC90,"[1]; Staphylococcus hominis, Staphylococcus hominis Quinolone-S, N 15, read-out: MIC90",0.06 µg/mL
same,MIC Range,"[1]; Staphylococcus lugdunensis Quinolone-R, N 5",0.125 to 2 µg/mL
same,MIC Range,"[1]; Staphylococcus lugdunensis Quinolone-S, N 10",0.015 to 0.06 µg/mL
same,MIC50,"[1]; Staphylococcus lugdunensis, Staphylococcus lugdunensis Quinolone-R, N 5",0.5 µg/mL
same,MIC90,"[1]; Staphylococcus lugdunensis, Staphylococcus lugdunensis Quinolone-R, N 5, read-out: MIC90",2 µg/mL
same,MIC50,"[1]; Staphylococcus lugdunensis, Staphylococcus lugdunensis Quinolone-S, N 10",0.03 µg/mL
same,MIC90,"[1]; Staphylococcus lugdunensis, Staphylococcus lugdunensis Quinolone-S, N 10, read-out: MIC90",0.06 µg/mL
same,MIC50,"[1]; Streptococcus mitis, Streptococcus mitis group, N 90",0.06 µg/mL
same,MIC90,"[1]; Streptococcus mitis, Streptococcus mitis group, N 90, read-out: MIC90",0.12 µg/mL
same,MIC Range,"[1]; Streptococcus oralis, N 22",0.03 to 2 µg/mL
same,MIC50,"[1]; Streptococcus oralis, N 22",0.06 µg/mL
same,MIC90,"[1]; Streptococcus oralis, N 22, read-out: MIC90",0.12 µg/mL
same,MIC Range,"[1]; Streptococcus pneumoniae Penicillin-S, N 123",0.015 to 1 µg/mL
same,MIC50,"[1]; Streptococcus pneumoniae, Streptococcus pneumoniae Penicillin-I, N 28",0.12 µg/mL
same,MIC90,"[1]; Streptococcus pneumoniae, Streptococcus pneumoniae Penicillin-I, N 28, read-out: MIC90",0.12 µg/mL
same,MIC50,"[1]; Streptococcus pneumoniae, Streptococcus pneumoniae Penicillin-R, N 61",0.12 µg/mL
same,MIC90,"[1]; Streptococcus pneumoniae, Streptococcus pneumoniae Penicillin-R, N 61, read-out: MIC90",0.12 µg/mL
same,MIC50,"[1]; Streptococcus pneumoniae, Streptococcus pneumoniae Penicillin-S, N 123",0.12 µg/mL
same,MIC90,"[1]; Streptococcus pneumoniae, Streptococcus pneumoniae Penicillin-S, N 123, read-out: MIC90",0.12 µg/mL
same,MIC50,"[1]; Streptococcus pneumoniae, Streptococcus pneumoniae Quinolone-R, N 23",1 µg/mL
same,MIC90,"[1]; Streptococcus pneumoniae, Streptococcus pneumoniae Quinolone-R, N 23, read-out: MIC90",4 µg/mL
same,MIC50,"[1]; Streptococcus pyogenes, N 201",0.06 µg/mL
same,MIC90,"[1]; Streptococcus pyogenes, N 201, read-out: MIC90",0.12 µg/mL
same,MIC Range,"[1]; Streptococcus salivarius, N 2",0.06 µg/mL
same,concentration at 24 h,"[2]; both sexes, human, tear fluid, topical, 37 μL of 0.6% suspension per eye, 0.6% suspension, human tears, read-out: mean concentration in tears at 24 hours (C24h)",1600 ± 2280 ng/g
same,concentration at 24 h,"[2]; both sexes, human, tear fluid, topical, 37 μL of 0.6% suspension per eye, after a single dose of 0.6% suspension, humans, read-out: concentration in tears sustained for at least 24 hours",≥ 1600 ng/g
same,Cmax,[2]; [5],610000 ± 540000 ng/g
same,Tmax,[2]; [5],0.17 h
same,half-life,[2]; [5],3.4 h
same,Cmax,[2]; [6],811000 ng/g
same,half-life,[2]; [6],3.51 h
same,time of mean maximum concentration in tears after instillation,"[2]; single instillation, healthy volunteers",≤ 10 min
same,AUC24,[2]; [7],1232 µg·h/g
same,t1/2,[2]; [7],3.43 h
same,AUC24,"[2]; tears, single instillation 0.6% suspension, healthy volunteers, PP",1523 µg·h/g
